Measurements reported in patent US20170252298A1, “Performance-Enhancing Nasal Irrigation” (Backed-by-Science, Inc., priority 2014, published 2017).

System: nasal cilia
Assay: nasal ciliary beat frequency (CBF), whole field analysis over time
Format: cell-based
Parameters: Mean CBF (WFA): unit: Hz
Protocol: The ATP concentration inside the cell is typically 1-10 millimolar (mM). We started with an ATP concentration of 1 mg/ml based on literature data and from testing done by Dr. James Palmer at University of Pennsylvania on ATP concentration for increasing nasal ciliary beat frequency. […] 1 mg/ml from the below charts=1 mg/ml=1 gram per liter=1/507 g/mol=2 mM. Most intracellular ATP concentrations in animals fall within the range of 0.5-10 mM. [table]

[1] = Plate 2, elapsed 0:08:10, ATP 1 mg/ml
[2] = Plate 2, elapsed 0:08:20, ATP 1 mg/ml
[3] = Plate 2, elapsed 0:08:30, ATP 1 mg/ml
[4] = Plate 2, elapsed 0:08:40, ATP 1 mg/ml
[5] = Plate 2, elapsed 0:08:50, ATP 1 mg/ml
[6] = Plate 2, elapsed 0:09:00, ATP 1 mg/ml
[7] = Plate 2, elapsed 0:09:10, ATP 1 mg/ml
[8] = Plate 2, elapsed 0:09:20, ATP 1 mg/ml
[9] = Plate 2, elapsed 0:09:30, ATP 1 mg/ml
[10] = Plate 2, elapsed 0:09:40, ATP 1 mg/ml
[11] = Plate 2, elapsed 0:09:50, ATP 1 mg/ml
[12] = Plate 2, elapsed 0:10:00, ATP 1 mg/ml
[13] = Plate 2, elapsed 0:10:10, ATP 1 mg/ml
[14] = Plate 2, elapsed 0:10:20, ATP 1 mg/ml
[15] = Plate 2, elapsed 0:10:30, ATP 1 mg/ml
[16] = Plate 2, elapsed 0:10:40, ATP 1 mg/ml
[17] = Plate 2, elapsed 0:10:50, ATP 1 mg/ml
[18] = Plate 2, elapsed 0:11:00, ATP 1 mg/ml
[19] = Plate 2, elapsed 0:11:10, ATP 1 mg/ml
[20] = Plate 2, elapsed 0:15:10, ATP 1 mg/ml
[21] = Plate 2, elapsed 0:15:20, ATP 1 mg/ml
[22] = Plate 2, elapsed 0:15:30, ATP 1 mg/ml
[23] = Plate 2, elapsed 0:15:40, ATP 1 mg/ml
[24] = Plate 2, elapsed 0:15:50, ATP 1 mg/ml
[25] = Plate 2, elapsed 0:16:00, ATP 1 mg/ml
[26] = Plate 2, elapsed 0:16:10, ATP 1 mg/ml
[27] = Plate 2, elapsed 0:16:20, ATP 1 mg/ml
[28] = Plate 2, elapsed 0:16:30, ATP 1 mg/ml
[29] = Plate 2, elapsed 0:16:40, ATP 1 mg/ml
[30] = Plate 2, elapsed 0:16:50, ATP 1 mg/ml
[31] = Plate 2, elapsed 0:17:00, ATP 1 mg/ml
[32] = Plate 2, elapsed 0:17:10, ATP 1 mg/ml
[33] = Plate 2, elapsed 0:17:20, ATP 1 mg/ml
[34] = Plate 2, elapsed 0:17:30, ATP 1 mg/ml
[35] = Plate 2, elapsed 0:17:40, ATP 1 mg/ml
[36] = Plate 2, elapsed 0:17:50, ATP 1 mg/ml
[37] = Plate 2, elapsed 0:18:00, ATP 1 mg/ml
[38] = Plate 2, elapsed 0:18:10, ATP 1 mg/ml
[39] = Plate 2, elapsed 0:18:20, ATP 1 mg/ml
[40] = Plate 2, elapsed 0:18:30, ATP 1 mg/ml
[41] = Plate 2, elapsed 0:18:40, ATP 1 mg/ml
[42] = Plate 2, elapsed 0:18:50, ATP 1 mg/ml
[43] = Plate 2, elapsed 0:19:00, ATP 1 mg/ml
[44] = Plate 2, elapsed 0:19:10, ATP 1 mg/ml
[45] = Plate 2, elapsed 0:19:20, ATP 1 mg/ml
[46] = Plate 2, elapsed 0:19:30, ATP 1 mg/ml
[47] = Plate 2, elapsed 0:19:40, ATP 1 mg/ml
[48] = Plate 2, elapsed 0:19:50, ATP 1 mg/ml
[49] = Plate 2, elapsed 0:20:00, ATP 1 mg/ml

Nc1ncnc2c1ncn2[C@@H]1O[C@H](COP(=O)(O)OP(=O)(O)OP(=O)(O)O)[C@@H](O)[C@H]1O [ATP, adenosine triphosphate]
Active Area [1]: 37.97% | Mean CBF (WFA) [1]: 8.3 | Active Area [2]: 38.66% | Mean CBF (WFA) [2]: 8.29 | Active Area [3]: 39% | Mean CBF (WFA) [3]: 8.27 | Active Area [4]: 36.32% | Mean CBF (WFA) [4]: 8.33 | Active Area [5]: 39.05% | Mean CBF (WFA) [5]: 8.36 | Active Area [6]: 37.12% | Mean CBF (WFA) [6]: 8.36 | Active Area [7]: 38.83% | Mean CBF (WFA) [7]: 8.31 | Active Area [8]: 38.39% | Mean CBF (WFA) [8]: 8.31 | Active Area [9]: 37.54% | Mean CBF (WFA) [9]: 8.37 | Active Area [10]: 36.11% | Mean CBF (WFA) [10]: 8.42 | Active Area [11]: 35.79% | Mean CBF (WFA) [11]: 8.4 | Active Area [12]: 36.58% | Mean CBF (WFA) [12]: 8.44 | Active Area [13]: 36.77% | Mean CBF (WFA) [13]: 8.49 | Active Area [14]: 37.58% | Mean CBF (WFA) [14]: 8.39 | Active Area [15]: 37.33% | Mean CBF (WFA) [15]: 8.41 | Active Area [16]: 37.82% | Mean CBF (WFA) [16]: 8.41 | Active Area [17]: 35.58% | Mean CBF (WFA) [17]: 8.37 | Active Area [18]: 38.06% | Mean CBF (WFA) [18]: 8.43 | Active Area [19]: 38.67% | Mean CBF (WFA) [19]: 8.42 | Active Area [20]: 41.31% | Mean CBF (WFA) [20]: 8.44 | Active Area [21]: 41.96% | Mean CBF (WFA) [21]: 8.48 | Active Area [22]: 39.32% | Mean CBF (WFA) [22]: 8.43 | Active Area [23]: 39.9% | Mean CBF (WFA) [23]: 8.44 | Active Area [24]: 40.84% | Mean CBF (WFA) [24]: 8.41 | Active Area [25]: 41.99% | Mean CBF (WFA) [25]: 8.36 | Active Area [26]: 42.7% | Mean CBF (WFA) [26]: 8.37 | Active Area [27]: 43.14% | Mean CBF (WFA) [27]: 8.39 | Active Area [28]: 42.52% | Mean CBF (WFA) [28]: 8.36 | Active Area [29]: 42.09% | Mean CBF (WFA) [29]: 8.38 | Active Area [30]: 42.85% | Mean CBF (WFA) [30]: 8.33 | Active Area [31]: 38.98% | Mean CBF (WFA) [31]: 8.32 | Active Area [32]: 41.85% | Mean CBF (WFA) [32]: 8.27 | Active Area [33]: 41.7% | Mean CBF (WFA) [33]: 8.24 | Active Area [34]: 42.78% | Mean CBF (WFA) [34]: 8.29 | Active Area [35]: 40.85% | Mean CBF (WFA) [35]: 8.32 | Active Area [36]: 42.27% | Mean CBF (WFA) [36]: 8.27 | Active Area [37]: 38.92% | Mean CBF (WFA) [37]: 8.27 | Active Area [38]: 40.18% | Mean CBF (WFA) [38]: 8.29 | Active Area [39]: 42.69% | Mean CBF (WFA) [39]: 8.27 | Active Area [40]: 42.91% | Mean CBF (WFA) [40]: 8.27 | Active Area [41]: 41.71% | Mean CBF (WFA) [41]: 8.24 | Active Area [42]: 42.85% | Mean CBF (WFA) [42]: 8.28 | Active Area [43]: 43.3% | Mean CBF (WFA) [43]: 8.24 | Active Area [44]: 42.12% | Mean CBF (WFA) [44]: 8.22 | Active Area [45]: 42.33% | Mean CBF (WFA) [45]: 8.25 | Active Area [46]: 43.77% | Mean CBF (WFA) [46]: 8.23 | Active Area [47]: 44.6% | Mean CBF (WFA) [47]: 8.25 | Active Area [48]: 43.27% | Mean CBF (WFA) [48]: 8.24 | Active Area [49]: 43.87% | Mean CBF (WFA) [49]: 8.26 | ATP concentration sufficient to give an increase in ciliary beat frequency (testing by Dr. James Palmer, University of Pennsylvania): 1 mg/mL
